The target in the test is T1, human RXFP1 (Homo sapiens, UniProt Q9HBX9).
T1 construct: expressed in transfected cells
T1 sequence (Q9HBX9 1-757): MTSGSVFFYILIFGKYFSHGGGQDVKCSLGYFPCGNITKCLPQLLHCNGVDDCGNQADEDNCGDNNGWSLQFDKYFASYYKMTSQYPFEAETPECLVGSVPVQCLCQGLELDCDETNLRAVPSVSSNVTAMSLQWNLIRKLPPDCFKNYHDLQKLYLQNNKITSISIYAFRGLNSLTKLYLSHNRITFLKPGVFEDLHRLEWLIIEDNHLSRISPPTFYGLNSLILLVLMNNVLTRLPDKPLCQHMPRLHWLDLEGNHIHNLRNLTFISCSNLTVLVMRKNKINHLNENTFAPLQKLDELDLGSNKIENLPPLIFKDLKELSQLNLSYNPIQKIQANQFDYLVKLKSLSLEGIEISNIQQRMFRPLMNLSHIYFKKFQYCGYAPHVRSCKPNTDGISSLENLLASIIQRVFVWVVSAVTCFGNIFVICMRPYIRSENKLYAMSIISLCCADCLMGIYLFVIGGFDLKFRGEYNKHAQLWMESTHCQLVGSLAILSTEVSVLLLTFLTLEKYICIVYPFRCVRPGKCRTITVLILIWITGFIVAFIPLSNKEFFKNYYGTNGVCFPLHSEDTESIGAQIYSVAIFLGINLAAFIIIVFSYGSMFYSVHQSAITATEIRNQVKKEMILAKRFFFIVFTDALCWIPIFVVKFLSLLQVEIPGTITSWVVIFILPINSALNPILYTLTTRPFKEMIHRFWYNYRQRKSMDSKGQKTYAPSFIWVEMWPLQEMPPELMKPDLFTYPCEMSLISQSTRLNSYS
Nature of the test: hRXFP1 HEK293 cAMP assay (HTRF). In kind it is cell-based. As to conditions: HEK293 cells stably expressing human RXFP1, 30 min at room temperature. Put shortly:
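Potency and activity come from a four-parameter logistic fit of cAMP against compound concentration, tested from 0.010 nM up to 50 μM. The assay uses HEK293 cells stably expressing human RXFP1, incubated 30 min at ambient temperature with phosphodiesterase inhibitor IBMX present.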
For orientation: Cyclic AMP is a second messenger, typically raised through Gs and lowered through Gi signalling.
One may read the EC50 as the concentration needed to bring the measured effect to its halfway point. As for `COc1ccc(CC[C@@H](C)O)cc1C(=O)N[C@@H]1C2CCC(/C2=C/C(F)(F)F)[C@@H]1C(=O)Nc1ccc(F)c(C(F)(F)F)c1` (stereo partly drawn) [Example 93, (2S,3R,7Z)-N-[4-fluoro-3-(trifluoromethyl)phe-nyl]-3-{5-[(3R)-3-hydroxybutyl]-2-methoxybenzamido}-7-(2,2,2-trifluoroethylidene)bi-cyclo[2.2.1]heptane-2-carboxamide], a half-maximal response (EC50) required 248 nM.

On to `COc1ccc(C#C[C@@H](C)O)cc1C(=O)N[C@@H]1C2CCC(/C2=C/C2CC2)[C@@H]1C(=O)Nc1ccc(F)c(C(F)(F)F)c1` (stereo partly drawn) [Example 73, (2S,3R,7Z)-7-(cyclopropylmethyli-dene)-N-[4-fluoro-3-(trifluoromethyl)phe-nyl]-3-{5-[(3R)-3-hydroxybut-1-yn-1-yl]-2-methoxybenzamido} bicyclo[2.2.1]heptane-2-carboxamide], for which the midpoint of the response, the EC50, lay at 88 nM.

As to `COc1ccc(S(=O)(=O)N2CCC(CCO)CC2)cc1C(=O)N[C@H]1[C@@H](C(=O)Nc2ccc(F)c(C(F)(F)F)c2)[C@H]2CC[C@@H]1/C2=C\C(F)(F)F` [Example 219, (1R,2S,3R,4R,7Z)-N-[4-fluoro-3-(trifluoromethyl)phenyl]-3-(5-{[4-(2-hydroxyethyl)piperidin-1-yl]sulfonyl}-2-methoxybenzamido)-7-(2,2,2-trifluoroethylidene) bicyclo[2.2.1]heptane-2-carboxamide], the midpoint of the response, the EC50, lay at 317 nM.

In turn, `COC(=O)/C=C\c1ccc(OC)c(C(=O)N[C@H]2[C@@H](C(=O)Nc3ccc(F)c(C(F)(F)F)c3)[C@H]3CC[C@@H]2/C3=C\C(F)(F)F)c1` [Example 304, methyl (2Z)-3-(3-{[(1R,2R,3S,4R,7Z)-3-{[4-fluoro-3-(trifluoromethyl)phenyl]carbamoyl}-7-(2,2,2-trifluoroethylidene)bicyclo[2.2.1]heptan-2-yl]carbamoyl}-4-methoxyphenyl) prop-2-enoate] returned an EC50 of 597 nM.

In the case of `COc1ccc(/C=C/C(=O)N[C@H]2C[C@@H](O)C2)cc1C(=O)N[C@@H]1C2CCC(/C2=C/C2CC2)[C@@H]1C(=O)Nc1ccc(F)c(C(F)(F)F)c1` (stereo partly drawn) [Example 128, (2S,3R,7Z)-7-(cyclopropylmethyli-dene)-N-[4-fluoro-3-(trifluoromethyl)phe-nyl]-3-{2-methoxy-5-[(1E)-2-{[(1s,3s)-3-hydroxycyclobutyl]carbamoyl}eth-1-en-1-yl]benzamido}bicyclo [2.2.1]heptane-2-carboxamide], a half-maximal effect (EC50) was put at 96 nM.

Consider `COc1ccc(/C=C/C(=O)N2CC(O)C2)cc1C(=O)N[C@H]1[C@@H](C(=O)Nc2ccc(F)c(C(F)(F)F)c2)[C@H]2CC[C@@H]1/C2=C\C1CC1` [Example 313, (1R,2S,3R,4R,7Z)-7-(cyclopropyl-methylidene)-N-[4-fluoro-3-(trifluoromethyl)phenyl]-3-{5-[(1E)-3-(3-hydroxyazetidin-1-yl)-3-oxoprop-1-en-1-yl]-2-methoxybenzamido} bicyclo[2.2.1]heptane-2-carboxamide], for which the EC50 was found to be 32.9 nM.

With `COc1ccc(N(Cc2ccccc2)Cc2ccccc2)cc1C(=O)N[C@H]1[C@@H](C(=O)Nc2ccc(F)c(C(F)(F)F)c2)[C@H]2CC[C@@H]1/C2=C\C1CC1` [Example 1, (1R,2S,3R,4R,Z)-7-(cyclopropylmethylene)-3-(5-(dibenzylamino)-2-methoxybenzamido)-N-(4-fluoro-3-(trifluoromethyl)phenyl) bicyclo[2.2.1]heptane-2-carboxamide], the response was half-maximal at 675 nM (EC50).

On to `COc1ccc(C2CCCC(O)C2)cc1C(=O)N[C@@H]1C2CCC(/C2=C/C(F)(F)F)[C@@H]1C(=O)Nc1ccc(F)c(C(F)(F)F)c1` (single isomer, unassigned) [Example 38], for which it took 250 nM to reach a half-maximal effect (EC50).

As to `COc1ccc([C@H]2C[C@@H](O)C2)cc1C(=O)NC1C2CCC(/C2=C/C2CC2)[C@@H]1C(=O)Nc1ccc(F)c(C(F)(F)F)c1` (stereo partly drawn) [Example 147, (2S,3R,7Z)-7-(cyclopropylmethyli-dene)-N-[4-fluoro-3-(trifluoromethyl)phe-nyl]-3-{2-methoxy-5-[(1r,3r)-3-hydroxycyclobutyl]benzamido}bicyclo [2.2.1]heptane-2-carboxamide], the concentration for a half-maximal effect (EC50) was determined as 21 nM.

For `COc1ccc(S(=O)(=O)N2CCNCC2)cc1C(=O)NC1C2CCC(/C2=C/C(F)(F)F)[C@@H]1C(=O)Nc1ccc(F)c(C(F)(F)F)c1` (stereo partly drawn) [Example 203, (2S,3R,7Z)-N-[4-fluoro-3-(trifluoromethyl)phe-nyl]-3-[2-methoxy-5-(piperazine-1-sulfonyl)benzamido]-7-(2,2,2-trifluoroethylidene)bi-cyclo[2.2.1]heptane-2-carboxamide], the half-maximal effective concentration (EC50) amounted to 858 nM.

`COc1ccc(CCCCC(F)(F)F)cc1C(=O)NC1C2CCC(/C2=C/C(F)(F)F)[C@@H]1C(=O)Nc1ccc(F)c(C(F)(F)F)c1` (stereo partly shown) [Example 186, (7Z)-N-[4-fluoro-3-(trifluoromethyl)phe-nyl]-3-[2-methoxy-5-(5,5,5-trifluoropentyl)benza-mido]-7-(2,2,2-trifluoroethylidene)bi-cyclo[2.2.1]heptane-2-carboxamide] gave an EC50 of 280 nM.

`COc1ccc(/C=C/C(=O)N2CCC(C#N)CC2)cc1C(=O)N[C@H]1[C@@H](C(=O)Nc2ccc(F)c(C(F)(F)F)c2)[C@H]2CC[C@@H]1/C2=C\C1CC1` [Example 316, (1R,2S,3R,4R,7Z)-3-{5-[(1E)-3-(4-cyanopiperidin-1-yl)-3-oxoprop-1-en-1-yl]-2-methoxybenzamido}-7-(cyclopropylmethylidene)-N-[4-fluoro-3-(trifluoromethyl)phenyl]bicyclo[2.2.1] heptane-2-carboxamide] registered a half-maximal effective concentration (EC50) of 96.7 nM.

Consider `COc1ccc(COC[C@@H]2C[C@@H]2C(=O)OCc2ccccc2)cc1C(=O)N[C@H]1[C@@H](C(=O)Nc2ccc(F)c(C(F)(F)F)c2)[C@H]2CC[C@@H]1/C2=C\C1CC1` [Example 287, benzyl (1S, 2R)-2-{[(3-{[(1R,3S,4R,7Z)-7-(cyclopropylmethylidene)-3-{[4-fluoro-3-(trifluoromethyl)phenyl]carbamoyl}bicyclo[2.2.1]heptan-2-yl]carbamoyl}-4-methoxyphenyl)methoxy]methyl} cyclopropane-1-carboxylate], for which it took 1290 nM to reach a half-maximal effect (EC50).

In turn, `COc1ccc(C2CC3CC(O)CC32)cc1C(=O)N[C@H]1[C@@H](C(=O)Nc2ccc(F)c(C(F)(F)F)c2)[C@H]2CC[C@@H]1/C2=C\C1CC1` (single isomer, unassigned) [Example 340] showed a concentration giving a half-maximal response (EC50) of 78.5 nM.

For `COc1ccc(S(=O)(=O)N2CCN(C(=O)OC(C)(C)C)CC2CCO)cc1C(=O)N[C@H]1[C@@H](C(=O)Nc2ccc(F)c(C(F)(F)F)c2)[C@H]2CC[C@@H]1/C2=C\C(F)(F)F` (stereo partly drawn) [Example 215, tert-butyl 4-(3-{[(1R,2R,3S,4R,7Z)-3-{[4-fluoro-3-(trifluoromethyl)phenyl]carbamoyl}-7-(2.2,2-trifluoroethylidene)bicyclo[2.2.1]heptan-2-yl]carbamoyl}-4-methoxy-benzenesulfonyl)-3-(2-hydroxyethyl) piperazine-1-carboxylate], the EC50 worked out at 761 nM.

In turn, `COc1c(F)cc(C(=O)NCC2(S(C)(=O)=O)CC2)cc1C(=O)N[C@H]1[C@@H](C(=O)Nc2ccc(F)c(C(F)(F)F)c2)[C@H]2CC[C@@H]1/C2=C\C1CCCC1` [Example 367, N3-[(1R,2R,3S,4R,7Z)-7-(cyclopentyl-methylidene)-3-{[4-fluoro-3-(trifluoromethyl)phenyl]carbamoyl}bicyclo[2.2.1]heptan-2-yl]-5-fluoro-N1-[(1-methanesulfonyl-cyclopropyl)methyl]-4-methoxybenzene-1,3-dicarboxamide] showed an EC50 of 2.3 nM.

Consider `COc1ccc(C2CCC(O)CC2)cc1C(=O)NC1C2CCC(/C2=C/C(F)(F)F)[C@@H]1C(=O)Nc1ccc(F)c(C(F)(F)F)c1` (single isomer, unassigned) [Example 53], for which the EC50 is 396 nM.

On to `COc1ccc([C@H]2C[C@H](O)C2)cc1C(=O)N[C@H]1[C@@H](C(=O)Nc2ccc(F)c(C(F)(F)F)c2)[C@H]2CC[C@@H]1/C2=C\C1CC1` [Example 277, (1R,2S,3R,4R,7Z)-7-(cyclopropylmethyl-idene)-N-[4-fluoro-3-(trifluoromethyl)phenyl]-3-{2-methoxy-5-[(1r,3r)-3-hydroxycyclobutyl]benzamido} bicyclo [2.2.1]heptane-2-carboxamide], for which the EC50 worked out at 7.25 nM.

Molecule `COc1ccc(C2CCCC(NC(=O)C3CCOCC3)C2)cc1C(=O)N[C@@H]1C2CCC(/C2=C/C(F)(F)F)[C@@H]1C(=O)Nc1ccc(F)c(C(F)(F)F)c1` (single isomer, unassigned) [Example 51] registered an EC50 of 2350 nM.

The record behind these values is patent US20250268903A1, “RXFP1 AGONISTS” (BRISTOL-MYERS SQUIBB COMPANY, priority 2021, published 2025).
